Experiment in all cases: NCI-60 cell line screen, 48 h
The subject of experiment [1] is DLD-1.
Experiment [2] has as its system DMS-114.
For experiment [3], the system named is DMS-273.
For experiment [4], the system named is KM-20L2.
For experiment [5], the system named is LXFL 529.
Experiment [6] concerns M19-MEL.
In experiment [7] the test system is RXF 631.
The test system of experiment [8] is SNB-78.
In experiment [9] the test system is XF498.

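Growth conditions: 96-well plates. Treatment: test compound, 48 hours, 5 concentrations. Analysis: linear interpolation between bracketing concentrations; unreached endpoints set to highest concentration. The concentration for 50% growth inhibition is given as GI50.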 Activity calls are given as the source filed them. No stated cut-off is given here; in the data, active = GI50 up to about 1.1 µM and inactive = higher.

Regarding `CN(C)C(=S)/N=c1\ssc(=S)n1Cc1cccnc1`, the GI50 was 3.95 µM (inactive) in experiment [1]; 0.783 µM (active) in experiment [2]; 1.09 µM (active) in experiment [3]; 2.06 µM (inactive) in [4]; 6.15 µM (inactive) in [5]; 1.51 µM (inactive) in [6]. For the same compound, the figures for the GI50 in experiment [7], in experiment [8] and in experiment [9] were 4.39 µM (inactive), > 100 µM (inactive) and 3.15 µM (inactive), respectively.

In the case of `CC(C)C(/N=C1\CC2CCC1(C(=O)Nc1ccccc1O)C2(C)C)c1ccccc1` (stereo unspecified), the GI50 in [1], in [2], in [3], in experiment [4], in experiment [5] and in experiment [6] was > 10 µM (inactive) throughout. The GI50 in [7] was > 10 µM (inactive); in experiment [8], > 10 µM (inactive); in experiment [9] it was 7.29 µM (inactive).

With `N#C/C(=C\c1cc(O)cc(O)c1)C(N)=O`, the GI50 in [1], in experiment [2], in [3], in experiment [4], in [5] and in [6] was > 100 µM (inactive) throughout. In addition, the GI50 in experiment [7], in experiment [8] and in [9] was > 100 µM (inactive) each time.

Take `CC12CCC(=O)N1c1cc([N+](=O)[O-])ccc1N2` (stereo unspecified): the GI50 in experiment [1], in experiment [2], in experiment [3], in experiment [4], in [5] and in experiment [6] was > 100 µM (inactive) each time. In addition, the GI50 in [7], in [8] and in experiment [9] was > 100 µM (inactive) in each case.

Source of the values: ChEMBL document CHEMBL1201862, “PubChem BioAssay data set” (2004).
